Source: patent publication US5962471A, “Substituted 6- and 7-aminotetrahydroisoquinolinecarboxylic acids” (Hoechst Aktiengesellschaft, priority 1997, dated 1999)

Columns and labels:
[1] = biological target: T1, human stromelysin (MMP-3) (Homo sapiens, UniProt P08254); assay: inhibition of the catalytic domain of human stromelysin (MMP-3), fluorogenic substrate; assay type: biochemical
T1 construct: catalytic domains of human stromelysin and of neutrophil collagenase; made in house
Experimental: (§1) Preparation and determination of the enzymatic activity of the catalytic domains of human stromelysin and of neutrophil collagenase.
(§2) The two enzymes--stromelysin (MMP-3) and neutrophil collagenase (MMP-8)--were prepared according to Ye et al., Biochemistry, vol. […] To measure the enzyme activity or the enzyme inhibitor action, 70 μl of buffer solution and 10 μl of enzyme solution are incubated for 15 minutes with 10 μl of a 10% strength (v/v) aqueous dimethyl sulfoxide solution, which optionally contains the enzyme inhibitor.
(§3) The buffer solution contains 0.05% Brij (Sigma, Deisenhofen, Germany) and also 0.1 mol/l tris/HCl, 0.1 mol/l NaCl, 0.01 mol/l CaCl2 and 0.1 mol/l piperazine-N,N'-bis[2-ethanesulfonic acid] (pH=6.5). The enzyme solution contains 5 μg/ml of one of the enzyme domains prepared according to Ye et al. The substrate solution contains 1 mmol/l of the fluorogen ic substrate (7-methoxycoumarin4-yl)acetyl-Pro-Leu-Gly-Leu-3-(2',4'-dinitrophenyl)-L-2,3-diaminopropionyl-Ala-Arg-NH2 (Bachem, Heidelberg, Germany).
(§4) The enzyme activity is shown as the extinction increase/minute.

[2] = system: neutrophil collagenase (MMP-8); assay: inhibition of the catalytic domain of neutrophil collagenase (MMP-8), fluorogenic substrate; assay type: biochemical, human; settings: fluorescence 328 nm (ex)/393 nm (em), pH=6.5, 15 min preincubation
Experimental: as §1, §2, §3, §4

T1 sequence (P08254 100-273 limits assumed): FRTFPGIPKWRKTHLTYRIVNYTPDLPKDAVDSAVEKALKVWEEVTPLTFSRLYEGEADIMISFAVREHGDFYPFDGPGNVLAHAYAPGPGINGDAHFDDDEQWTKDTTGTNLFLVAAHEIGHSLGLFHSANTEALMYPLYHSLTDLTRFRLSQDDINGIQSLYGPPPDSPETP

With COc1ccc(S(=O)(=O)N2Cc3cc(N)ccc3C[C@@H]2C(=O)NO)cc1 [Example 10, 2-(4-Methoxybenzenesulfonyl)-7-amino-1,2,3,4-tetrahydroisoquinoline-(R)-3-(N-hydroxy)carboxamide] the IC50 [1] was 10 nM.
COc1ccc(S(=O)(=O)N2Cc3cc(NC(=O)OC(C)(C)C)ccc3C[C@@H]2C(=O)NO)cc1 [Example 11] showed an IC50 [2] of 3 nM and an IC50 [1] of 20 nM.
Work on O=C(O)[C@H]1Cc2ccc([N+](=O)[O-])cc2CN1S(=O)(=O)c1ccc(-c2ccc(Cl)cc2)cc1 [Example 15] yielded an IC50 [2] of 30 nM.
O=C(O)[C@H]1Cc2cc([N+](=O)[O-])ccc2CN1S(=O)(=O)c1ccc(-c2ccc(Cl)cc2)cc1 [Example 16] was tested, and the IC50 [2] was 20 nM.
For O=C(O)[C@H]1Cc2ccc([N+](=O)[O-])cc2CN1S(=O)(=O)c1ccc(-c2ccc(F)cc2)cc1 [Example 17], the IC50 [2] was 40 nM.
Work on O=C(O)[C@H]1Cc2cc([N+](=O)[O-])ccc2CN1S(=O)(=O)c1ccc(-c2ccc(F)cc2)cc1 [Example 18] yielded an IC50 [2] of 20 nM.
Compound CC(C)(C)OC(=O)Nc1ccc2c(c1)CN(S(=O)(=O)c1ccc(-c3ccc(F)cc3)cc1)[C@@H](C(=O)O)C2 [Example 20] has an IC50 [2] of 100 nM and an IC50 [1] of 2000 nM.
Nc1ccc2c(c1)C[C@H](C(=O)O)N(S(=O)(=O)c1ccc(-c3ccc(F)cc3)cc1)C2 [Example 21] was tested, and the IC50 [2] was 8 nM and the IC50 [1] was 200 nM.
Nc1ccc2c(c1)CN(S(=O)(=O)c1ccc(-c3ccc(F)cc3)cc1)[C@@H](C(=O)O)C2 [Example 22] gave an IC50 [2] of 8 nM and an IC50 [1] of 300 nM.
Compound C[C@H](NC(=O)OCc1ccccc1)C(=O)Nc1ccc2c(c1)CN(S(=O)(=O)c1ccc(-c3ccc(Cl)cc3)cc1)[C@@H](C(=O)O)C2 [Example 24] has an IC50 [2] of 60 nM and an IC50 [1] of 300 nM.
CC(N)C(=O)Nc1ccc2c(c1)CN(S(=O)(=O)c1ccc(-c3ccc(Cl)cc3)cc1)[C@@H](C(=O)O)C2 (some centres unmarked) [Example 25] showed an IC50 [2] of 10 nM and an IC50 [1] of 200 nM.
In the case of CC(C)(C)OC(=O)Nc1ccc2c(c1)CN(S(=O)(=O)c1ccc(-c3ccc(F)cc3)cc1)[C@@H](C(=O)NO)C2 [Example 27], the IC50 [2] is reported as 10 nM and the IC50 [1] is reported as 100 nM.
Compound Nc1ccc2c(c1)CN(S(=O)(=O)c1ccc(-c3ccc(F)cc3)cc1)[C@@H](C(=O)NO)C2 [Example 28] has an IC50 [2] of 2 nM and an IC50 [1] of 20 nM.
COc1ccc(S(=O)(=O)N2Cc3cc(NC(=O)[C@H](C)N)ccc3C[C@@H]2C(=O)NO)cc1 [Example 30] gave an IC50 [1] of 30 nM.
Work on COc1ccc(S(=O)(=O)N2Cc3cc(NC(=O)CCC(=O)O)ccc3C[C@@H]2C(=O)NO)cc1 [Example 31] yielded an IC50 [2] of 4 nM and an IC50 [1] of 20 nM.
In the case of COc1ccc(S(=O)(=O)N2Cc3cc(NC(=O)[C@H](CC(=O)OC(C)(C)C)NC(=O)OCc4ccccc4)ccc3C[C@@H]2C(=O)NO)cc1 [Example 32], the IC50 [2] is reported as 10 nM and the IC50 [1] is reported as 400 nM.
